Reference: US20120115907A1, “NOVEL COMPOUNDS AS INHIBITORS OF RENIN” (CADILA HEALTHCARE LIMITED, priority 2009, published 2012)
pIC50: −log10 of the molar value. Where a name gives a salt, the structure may show the parent alone.

Target: T1, human recombinant renin (Homo sapiens, UniProt P00797)
T1 construct: purchased Cayman 10006270
T1 sequence (P00797 67-406): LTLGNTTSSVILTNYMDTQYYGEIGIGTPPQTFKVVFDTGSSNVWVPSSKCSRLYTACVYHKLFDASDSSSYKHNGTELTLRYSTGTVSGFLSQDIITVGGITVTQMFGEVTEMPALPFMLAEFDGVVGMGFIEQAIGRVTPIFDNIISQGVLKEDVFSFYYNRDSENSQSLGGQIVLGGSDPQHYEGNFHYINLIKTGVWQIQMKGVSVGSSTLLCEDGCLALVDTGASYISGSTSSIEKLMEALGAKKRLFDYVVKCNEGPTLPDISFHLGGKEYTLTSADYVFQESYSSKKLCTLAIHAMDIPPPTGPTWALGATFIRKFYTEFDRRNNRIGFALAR
Assay: Inhibition of human recombinant renin (modified Cayman renin inhibitor screening assay, fluorescence)
Type: biochemical
Conditions: for inhibition at 0.01 µM / Renin inhibition (percent inhibition of renin activity) at 0.01 μM: 0.01 μM compound; for inhibition at 0.01 µM / inhibition at 0.1 µM / Renin inhibition (percent inhibition of renin activity) at 0.01 μM / Renin inhibition (percent inhibition of renin activity) at 0.1 μM: 37° C., 30 mins, human recombinant renin; for inhibition at 0.01 µM: read-out: Renin inhibition (percent inhibition of renin activity) at 0.01 μM; for inhibition at 0.1 µM / Renin inhibition (percent inhibition of renin activity) at 0.1 μM: 0.1 μM compound; for inhibition at 0.1 µM: read-out: Renin inhibition (percent inhibition of renin activity) at 0.1 μM
Description: In-vitro protocol for the Inhibition of human recombinant renin by the compound of invention • Procedure: The enzymatic in vitro assay was performed in 96 well polypropylene plate (Nunc), using a modified Renin inhibitor screening assay protocol (Cayman, cat no: 10006270). The reaction system comprised assay buffer containing 50 mM Tris-HCL, pH=8.0 & 100 mM sodium chloride, human recombinant rennin (1:20 diluted with fixed activity), synthetic renin substrates (Cayman, cat no: 10006906) (14.4 μM) and different concentrations of renin inhibitors in DMSO in a total reaction system of 100 μl. The entire reaction mixture were incubated at 37° C. for 30 mins and the fluorescence was read at excitation wavelengths of 320-360 nm and emission wavelengths of 490-520 nm. Test compounds efficacy was determined by the percent inhibition of renin activity using Aliskiren (Tekturna) as a reference standard.
Following table represents measured IC50 values of the selected compounds for its inhibition of human recombinant renin.

| inhibition at 0.01 µM [%] | inhibition at 0.1 µM [%] | SMILES | other results |
| --- | --- | --- | --- |
| 42 | 81 | Cc1cc(Cl)c(OCCOc2ccc(C(=O)NC3CCNCC3C(=O)N(Cc3ccc(Cl)cc3Cl)C3CC3)cc2)c(Cl)c1 (mixture of isomers) [Example 5, N-Cyclopropyl-4-(4-(2-(2,6-dichloro-4-methylphenoxy)ethoxy)benzamido)-N-(2,4-dichlorobenzyl)piperidine-3-carboxamide] | pIC50: 7.41 |
| < 10 | 43 | COCCCOc1cccc(CN(C(=O)C2CNCCC2NC(=O)c2ccc(OCCOc3c(Cl)cccc3Cl)cc2)C2CC2)c1 (stereo not shown) [Example 3, N-Cyclopropyl-4-(4-(2-(2,6-dichlorophenoxy)ethoxy)benzamido)-N-(3-(3-methoxypropoxy)benzyl)piperidine-3-carboxamide] | – |
| < 10 | 47 | Cc1cc(C)cc(CN(C(=O)C2CNCCC2NC(=O)c2ccc(OCCOc3c(Cl)cccc3Cl)cc2)C2CC2)c1 (stereo not shown) [Example 4, N-Cyclopropyl-4-(4-(2-(2,6-dichlorophenoxy)ethoxy)benzamido)-N-(3,5-dimethylbenzyl)piperidine-3-carboxamide] | – |
| – | – | O=C(NC1CCNCC1C(=O)N(Cc1ccc(Cl)cc1Cl)C1CC1)c1ccc(OCCOc2c(Cl)cccc2Cl)cc1 (stereo not shown) [Example 6, N-Cyclopropyl-N-(2,4-dichlorobenzyl)-4-(4-(2-(2,6-dichlorophenoxy)ethoxy)benzamido) piperidine-3-carboxamide] | Renin inhibition (percent inhibition of renin activity) at 0.01 μM: * (Inactive at tested concentration); Renin inhibition (percent inhibition of renin activity) at 0.1 μM: 40% |
| < 10 | 41 | COc1ccc(CN(C(=O)C2CNCCC2NC(=O)c2ccc(OCCOc3c(Cl)cc(C)cc3Cl)cc2)C2CC2)cc1OC (stereo not shown) [Example 8, N-Cyclopropyl-4-(4-(2-(2,6-dichloro-4-methylphenoxy)ethoxy)benzamido)-N-(3,4-dimethoxybenzyl)piperidine-3-carboxamide] | – |
| < 10 | 44 | Cc1cc(C)cc(CN(C(=O)C2CNCCC2NC(=O)c2ccc(OCCOc3c(Cl)cc(C)cc3Cl)cc2)C2CC2)c1 (stereo not shown) [Example 10, N-Cyclopropyl-4-(4-(2-(2,6-dichloro-4-methylphenoxy)ethoxy)benzamido)-N-(3,5-dimethylbenzyl)piperidine-3-carboxamide] | – |
| 43 | 89 | Cc1cc(Cl)c(OCCOc2ccc(C(=O)NC3CCNCC3C(=O)N(Cc3ccc4ccccc4c3)C3CC3)cc2)c(Cl)c1 (stereo not shown) [Example 12, N-Cyclopropyl-4-(4-(2-(2,6-dichloro-4-methylphenoxy)ethoxy)benzamido)-N-(naphthalen-2-ylmethyl)piperidine-3-carboxamide] | pIC50: 7.19 |
| 19 | – | COc1cccc(CN(C(=O)C2CNCC[C@@H]2NC(=O)c2ccc(OCCOc3c(Cl)cc(C)cc3Cl)cc2)C2CC2)c1OC.Cl (stereo partly drawn) [Example 14, (4S)—N-cyclopropyl-4-(4-(2-(2,6-dichloro-4-methylphenoxy)ethoxy)benzamido)-N-(2,3-dimethoxybenzyl)piperidine-3-carboxamide hydrochloride] | Renin inhibition (percent inhibition of renin activity) at 0.1 μM (hydrochloride, 0.1 µM): 66% |
| – | – | COc1cccc(CN(C(=O)C2CNCC[C@@H]2NC(=O)c2ccc(OCCOc3c(Cl)cc(C)cc3Cl)cc2)C2CC2)c1OC.Cl (stereo partly drawn) [Example 15, (4S)—N-cyclopropyl-4-(4-(2-(2,6-dichloro-4-methylphenoxy)ethoxy)benzamido)-N-(2,3-dimethoxybenzyl)piperidine-3-carboxamide hydrochloride] | Renin inhibition (percent inhibition of renin activity) at 0.01 μM (hydrochloride, 0.01 µM): 13%; Renin inhibition (percent inhibition of renin activity) at 0.1 μM (hydrochloride, 0.1 µM): 12% |
| 11 | 52 | COc1ccccc1COCCOc1ccc(C(=O)N[C@H]2CCNCC2C(=O)N(Cc2cccc(C)c2C)C2CC2)cc1 (stereo partly drawn) [Example 16, (4S)—N-Cyclopropyl-N-(2,3-dimethylbenzyl)-4-(4-(2-((2-methoxybenzyl)oxy)ethoxy)benzamido)piperidine-3-carboxamide] | – |
| – | – | Cc1cc(Cl)c(OCCOc2ccc(C(=O)N[C@H]3CCNCC3C(=O)N(Cc3ccc(C)c(C)c3)C3CC3)cc2)c(Cl)c1.Cl (stereo partly shown) [Example 18] | Renin inhibition (percent inhibition of renin activity) at 0.01 μM: 20%; Renin inhibition (percent inhibition of renin activity) at 0.1 μM: 56% |
| 48 | 91 | Cc1cc(Cl)c(OCCOc2ccc(C(=O)N[C@H]3CCNCC3C(=O)N(Cc3cccc(C)c3C)C3CC3)cc2)c(Cl)c1 (stereo partly drawn) [Example 20, (4S)—N-Cyclopropyl-4-(4-(2-(2,6-dichloro-4-methylphenoxy)ethoxy)benzamido)-N-(2,3-dimethylbenzyl)piperidine-3-carboxamide hydrochloride] | pIC50: 7.89 |
| < 10 | 40 | Cc1cc(Cl)c(OCCOc2ccc(C(=O)N[C@@H]3CCNCC3C(=O)N(Cc3ccc(C)c(C)c3)C3CC3)cc2)c(Cl)c1 (stereo partly drawn) [Example 22, (4R)—N-Cyclopropyl-4-(4-(2-(2,6-dichloro-4-methylphenoxy)ethoxy)benzamido)-N-(3,4-dimethylbenzyl)piperidine-3-carboxamide hydrochloride] | – |
| 10 | 83 | Cc1cc(Cl)c(OCCOc2ccc(C(=O)N[C@@H]3CCNCC3C(=O)N(Cc3cccc(C)c3C)C3CC3)cc2)c(Cl)c1 (stereo partly drawn) [Example 24, (4R)—N-Cyclopropyl-4-(4-(2-(2,6-dichloro-4-methylphenoxy)ethoxy)benzamido)-N-(2,3-dimethylbenzyl)piperidine-3-carboxamide hydrochloride] | – |
| – | – | COc1ccccc1COCCCOc1ccc(C(=O)N[C@H]2CCNCC2C(=O)N(Cc2cccc(C)c2C)C2CC2)cc1.Cl (stereo partly shown) [Example 27] | Renin inhibition (percent inhibition of renin activity) at 0.01 μM (hydrochloride): * (Inactive at tested concentration); Renin inhibition (percent inhibition of renin activity) at 0.1 μM (hydrochloride, 0.1 µM): 38% |
| 11 | 65 | Cc1cc(Cl)c(OCCOc2ccc(C(=O)N[C@H]3CCNCC3C(=O)N(Cc3ccccc3F)C3CC3)cc2)c(Cl)c1 (stereo partly drawn) [Example 29, (4S)—N-Cyclopropyl-4-(4-(2-(2,6-dichloro-4-methylphenoxy)ethoxy)benzamido)-N-(2-fluorobenzyl)piperidine-3-carboxamide hydrochloride] | – |
| < 10 | 87 | Cc1cc(Cl)c(OCCOc2ccc(C(=O)N[C@H]3CCNCC3C(=O)N(Cc3ccccc3Cl)C3CC3)cc2)c(Cl)c1 (stereo partly drawn) [Example 30, (4S)—N-(2-Chlorobenzyl)-N-cyclopropyl-4-(4-(2-(2,6-dichloro-4-methylphenoxy)ethoxy)benzamido)piperidine-3-carboxamide hydrochloride] | – |
| < 10 | 17 | COc1ccccc1COCCCOc1ccc(C(=O)N[C@H]2CCNCC2C(=O)N(Cc2ccccc2OC)C2CC2)cc1 (stereo partly drawn) [Example 33, (4S)—N-Cyclopropyl-N-(2-methoxybenzyl)-4-(4-(3-((2-methoxybenzyl)oxy)propoxy)benzamido)piperidine-3-carboxamide hydrochloride] | – |
| 60 | 95 | Cc1cc(Cl)c(OCCOc2ccc(C(=O)N[C@H]3CCNCC3C(=O)N(Cc3cccc(Cl)c3Cl)C3CC3)cc2)c(Cl)c1 (stereo partly drawn) [Example 35, (4S)—N-Cyclopropyl-4-(4-(2-(2,6-dichloro-4-methylphenoxy)ethoxy)benzamido)-N-(2,3-dichlorobenzyl)piperidine-3-carboxamide hydrochloride] | – |
| 24 | 81 | COc1cccc(CN(C(=O)C2CNCC[C@@H]2NC(=O)c2ccc(OCCOc3c(Cl)cc(C)cc3Cl)cc2)C2CC2)c1C (stereo partly drawn) [Example 37, (4S)—N-Cyclopropyl-4-(4-(2-(2,6-dichloro-4-methylphenoxy)ethoxy)benzamido)-N-(3-methoxy-2-methylbenzyl)piperidine-3-carboxamide hydrochloride] | pIC50: 7.77 |

| SMILES | inhibition at 0.01 µM [%] | inhibition at 0.1 µM [%] | other results |
| --- | --- | --- | --- |
| COc1ccccc1COCCCOc1ccc(C(=O)N[C@H]2CCNCC2C(=O)N(Cc2cccc(C)c2C)C2CC2)cc1 (stereo partly drawn) [Example 28, (4S)—N-Cyclopropyl-N-(2,3-dimethylbenzyl)-4-(4-(3-((2-methoxybenzyl)oxy)propoxy)benzamido)piperidine-3-carboxamide hydrochloride] | 60 | 93 | – |
